Several values for one entry are separate records, joined by “and”; a condition that tells them apart may be missing. Identical values can stand only once. Like-named read-outs stand apart in the source and are kept apart here.
Assay: Mouse PK study (IV and PO), plasma parent compound and psilocin by LC-MS/MS
Assay type: in vivo
Conditions: for Plasma concentration of psilocin: BLQ = below 0.5 ng/mL; for F: C(XX); for concentration at 5 min / concentration at 0.25 h / concentration at 0.5 h / concentration at 1 h / concentration at 2 h / concentration at 4 h: intravenous, read-out: Plasma concentration of C(XX)
Excerpt: Briefly, the procedure was as follows. […] 19, 2022.

[1] = 10 mg/kg oral C(XX), individual animals
[2] = C(XX) in plasma, 1 mg/kg i.v. C(XX), Mean ± SD
[3] = C(XX) in plasma, 1 mg/kg i.v. C(XX), per animal, 1 mg/kg
[4] = C(XX) in plasma, 1 mg/kg oral C(XX), per animal, 1 mg/kg
[5] = C(XX) in plasma, 3 mg/kg oral C(XX), Mean ± SD
[6] = C(XX) in plasma, 3 mg/kg oral C(XX), per animal, 3 mg/kg
[7] = male, C57Bl/6, mouse, plasma, 1 mg/kg, 1 mg/kg i.v. C(XX), Mean ± SD
[8] = male, C57Bl/6, mouse, plasma, 1 mg/kg, 1 mg/kg i.v. C(XX), per animal, BLQ <0.25 ng/mL

Compound: CN(C)CCc1c[nH]c2cccc(OC(=O)c3cccc4c3OCCO4)c12 [C(XX)]
- Plasma concentration of C(XX) (1 mg/kg i.v. C(XX), 6 h, per animal, BLQ <0.25 ng/mL): BLQ
- Plasma concentration of psilocin (1 mg/kg i.v. C(XX), 8 h, individual animals): BLQ
- Plasma concentration of C(XX) (1 mg/kg i.v. C(XX), 8 h, per animal, BLQ <0.25 ng/mL): BLQ and No (2×)
- AUC0-tlast/Dose of C(XX) in plasma (1 mg/kg i.v. C(XX), mean ± SD): 52.8 ± 8.30 kg·ng·h/mL/mg
- Plasma concentration of C(XX) (1 mg/kg oral C(XX), 2 h, per animal, BLQ <0.25 ng/mL): BLQ
- Plasma concentration of C(XX) (1 mg/kg oral C(XX), 4 h, per animal, BLQ <0.25 ng/mL): BLQ
- Plasma concentration of C(XX) (1 mg/kg oral C(XX), 6 h, per animal, BLQ <0.25 ng/mL): No Peak (2×) and BLQ
- Plasma concentration of C(XX) (1 mg/kg oral C(XX), 8 h, per animal, BLQ <0.25 ng/mL): No Peak (2×) and BLQ
- Plasma concentration of psilocin (1 mg/kg oral C(XX), 24 h, individual animals): BLQ
- Plasma concentration of C(XX) (1 mg/kg oral C(XX), 24 h, per animal, BLQ <0.25 ng/mL): No Peak
- Cmax/Dose of C(XX) in plasma (1 mg/kg p.o. C(XX), mean ± SD): 0.620 kg·ng/mL/mg
- Plasma concentration of C(XX) (3 mg/kg oral C(XX), 4 h, per animal, BLQ <0.25 ng/mL): No Peak (2×) and BLQ
- Plasma concentration of C(XX) (3 mg/kg oral C(XX), 6 h, per animal, BLQ <0.25 ng/mL): No Peak and BLQ (2×)
- Plasma concentration of C(XX) (3 mg/kg oral C(XX), 8 h, per animal, BLQ <0.25 ng/mL): No Peak and BLQ (2×)
- Plasma concentration of psilocin (3 mg/kg oral C(XX), 24 h, individual animals): BLQ
- Plasma concentration of C(XX) (3 mg/kg oral C(XX), 24 h, per animal, BLQ <0.25 ng/mL): No Peak
- AUC0-tlast/Dose of C(XX) in plasma (3 mg/kg p.o. C(XX), mean ± SD): 0.458 kg·ng·h/mL/mg
- Cmax/Dose of C(XX) in plasma (3 mg/kg p.o. C(XX), mean ± SD): 0.571 kg·ng/mL/mg
- F(%) of C(XX) (3 mg/kg p.o. C(XX), mean ± SD): 0.953%
- Plasma concentration of C(XX) (10 mg/kg oral C(XX), 4 h, per animal, BLQ <0.25 ng/mL): BLQ
- Plasma concentration of C(XX) (10 mg/kg oral C(XX), 6 h, per animal, BLQ <0.25 ng/mL): BLQ
- Plasma concentration of C(XX) (10 mg/kg oral C(XX), 8 h, per animal, BLQ <0.25 ng/mL): BLQ
- Plasma concentration of psilocin (10 mg/kg oral C(XX), 24 h, individual animals): BLQ
- Plasma concentration of C(XX) (10 mg/kg oral C(XX), 24 h, per animal, BLQ <0.25 ng/mL): No Peak
- AUC0-tlast/Dose of C(XX) in plasma [1]: 0.565 kg·ng·h/mL/mg and 0.499 kg·ng·h/mL/mg and 0.916 kg·ng·h/mL/mg
- Cmax of C(XX) in plasma [1]: 2.99 ng/mL and 9.12 ng/mL and 10.3 ng/mL
- Cmax/Dose of C(XX) in plasma [1]: 0.299 kg·ng/mL/mg and 0.912 kg·ng/mL/mg and 1.03 kg·ng/mL/mg
- MRT0-inf of C(XX) in plasma [1]: 48 min and 214 min
- F(%) of C(XX) (10 mg/kg oral C(XX), individual animals, AUC0-tlast used, might be under-estimated): 1.07% and 0.941% and 1.73%
- Apparent t1/2 of C(XX) in plasma (10 mg/kg oral C(XX), individual animals, M60 estimate may not be accurate): 32 min and 340 min
- AUC0-tlast/Dose of C(XX) in plasma (10 mg/kg oral C(XX), mean ± SD): 0.660 ± 0.224 kg·ng·h/mL/mg
- Cmax/Dose of C(XX) in plasma (10 mg/kg oral C(XX), mean ± SD): 0.747 ± 0.392 kg·ng/mL/mg
- F(%) of C(XX) (10 mg/kg oral C(XX), mean ± SD, AUC0-tlast used): 1.24 ± 0.423%
- AUC0-inf/Dose [2]: 53.0 ± 8.26 kg·ng·h/mL/mg
- AUC0-tlast/Dose [2]: 52.8 ± 8.30 kg·ng·h/mL/mg
- AUC0-inf/Dose [3]: 48.3 kg·ng·h/mL/mg and 62.5 kg·ng·h/mL/mg and 48.1 kg·ng·h/mL/mg
- AUC0-tlast [3]: 48.0 ng·h/mL
- AUC0-tlast/Dose [3]: 48.1 kg·ng·h/mL/mg and 62.4 kg·ng·h/mL/mg and 48.0 kg·ng·h/mL/mg
- AUC(0-inf) [3]: 48.1 ng·h/mL
- Apparent t1/2 [3]: 32.2 min
- C0 [3]: 139 ng/mL
- CL [3]: 346.28 mL/min/kg
- Vss [3]: 8.913 L/kg
- Cmax/Dose (C(XX) in plasma, 1 mg/kg oral C(XX), Mean ± SD): 0.620 ± 0.0996 kg·ng/mL/mg
- Cmax/Dose [4]: 0.702 kg·ng/mL/mg and 0.509 kg·ng/mL/mg and 0.648 kg·ng/mL/mg
- Tmax [4]: 30 min
- AUC0-tlast/Dose [5]: 0.458 ± 0.0457 kg·ng·h/mL/mg
- Cmax/Dose [5]: 0.571 ± 0.0734 kg·ng/mL/mg
- Tmax (C(XX) in plasma, 3 mg/kg oral C(XX), per animal): 15 min
- AUC0-inf/Dose [6]: 0.510 kg·ng·h/mL/mg
- AUC0-tlast [6]: 1.42 ng·h/mL
- AUC0-tlast/Dose [6]: 0.406 kg·ng·h/mL/mg and 0.494 kg·ng·h/mL/mg and 0.474 kg·ng·h/mL/mg
- Cmax/Dose [6]: 0.497 kg·ng/mL/mg and 0.573 kg·ng/mL/mg and 0.643 kg·ng/mL/mg
- MRT0-inf [6]: 49.4 min
- F (3 mg/kg oral C(XX), Mean ± SD): 0.953 ± 0.132%
- F (3 mg/kg oral C(XX), per animal, 3 mg/kg): 0.816% and 1.08%
- concentration at 5 min [7]: 122 ± 26.1 ng/mL
- concentration at 5 min [8]: 109 ng/mL
- concentration at 0.25 h [7]: 70.5 ± 12.7 ng/mL
- concentration at 0.25 h [8]: 66.5 ng/mL
- concentration at 0.5 h [7]: 32 ± 5.9 ng/mL
- concentration at 0.5 h [8]: 26.1 ng/mL
- concentration at 1 h [7]: 8.43 ± 0.438 ng/mL
- concentration at 1 h [8]: 8.93 ng/mL
- concentration at 2 h (male, C57Bl/6, mouse, plasma, 1 mg/kg, 1 mg/kg i.v. C(XX), 2 h, Mean ± SD): 1.05 ± 0.0871 ng/mL
- concentration at 2 h (male, C57Bl/6, mouse, plasma, 1 mg/kg, 1 mg/kg i.v. C(XX), 2 h, per animal, BLQ <0.25 ng/mL): 0.968 ng/mL
- concentration at 4 h (male, C57Bl/6, mouse, plasma, 1 mg/kg, 1 mg/kg i.v. C(XX), 4 h, Mean ± SD): 0.181 ± 0.0663 ng/mL
- concentration at 4 h (male, C57Bl/6, mouse, plasma, 1 mg/kg, 1 mg/kg i.v. C(XX), 4 h, per animal, BLQ <0.25 ng/mL): 0.257 ng/mL
- half-life (male, C57Bl/6, mouse, plasma, iv, 1 mg/kg, 1 mg/kg i.v. C(XX), mean ± SD, read-out: Apparent t1/2 of C(XX) in plasma (converted)): 33.8 min
- clearance (male, C57Bl/6, mouse, plasma, iv, 1 mg/kg, C(XX) in plasma, 1 mg/kg i.v. C(XX), Mean ± SD): 320 mL/min/kg
- AUC(0-inf) (male, C57Bl/6, mouse, plasma, iv, 1 mg/kg, C(XX) in plasma, 1 mg/kg i.v. C(XX), Mean ± SD, read-out: AUC0-inf): 53 ± 8.26 ng·h/mL
